# Measurements: patent publication US20230107642A1 (Erasca, Inc., priority 2020, published 2023)
# Target: T1, K-Ras G12C (Homo sapiens, UniProt P01116, G12C)
# T1 construct: This protein contained 188 amino acids in total, including an N-terminal 6-Histidine tag; made in house; host or cells: E. coli BL21
# Assay: CAF assay (% CAF; method in Example 7, not in this part)
# Type: binding
# Settings: 10 uM compound, 1 h incubation
row,Structure (SMILES),"% CAF @ 10 uM, 1h [%]"
1,"C=CC(=O)N1CCN(c2nc(=O)n3c4c(c(-c5c(F)ccc6[nH]ncc56)c(Cl)cc24)SCC3)[C@@H](C)C1 [Example 408, 7-((S)-4-acryloyl-2-methylpiperazin-1-yl)-9-chloro-10-(5-fluoro-1H-indazol-4-yl)-2,3-dihydro-5H-[1,4]thiazino[2,3,4-ij]quinazolin-5-one]",39.3
2,"C=CC(=O)N1C2CN(c3nc(=O)n4c5c(c(-c6ccc(F)cc6F)c(C(F)(F)F)cc35)SCC4)CC1CC1(COC1)C2 [Example 417, 7-(9-acryloyl-7,9-diazaspiro[bicyclo[3.3.1]nonane-3,3′-oxetan]-7-yl)-10-(2,4-difluorophenyl)-9-(trifluoromethyl)-2,3-dihydro-5H-[1,4]thiazino[2,3,4-ij]quinazolin-5-one]",2
3,"C=C(F)C(=O)N1C2CC(=O)CC1CN(c1nc(=O)n3c4c(c(-c5ccc(F)cc5F)c(C(F)(F)F)cc14)SCC3)C2 [Example 418, 10-(2,4-difluorophenyl)-7-(9-(2-fluoroacryloyl)-7-oxo-3,9-diazabicyclo[3.3.1]nonan-3-yl)-9-(trifluoromethyl)-2,3-dihydro-5H-[1,4]thiazino[2,3,4-ij]quinazolin-5-one]",58
4,"CN(C)C/C=C/C(=O)N1C2CC(=O)CC1CN(c1nc(=O)n3c4c(c(-c5ccc(F)cc5F)c(C(F)(F)F)cc14)SCC3)C2 [Example 420, (E)-10-(2,4-difluorophenyl)-7-(9-(4-(dimethylamino)but-2-enoyl)-7-oxo-3,9-diazabicyclo[3.3.1]nonan-3-yl)-9-(trifluoromethyl)-2,3-dihydro-5H-[1,4]thiazino[2,3,4-ij]quinazolin-5-one]",93

# Now from value to molecule:
row,"% CAF @ 10 uM, 1h [%]",Structure (SMILES)
1,94,"C=CC(=O)N1CCN(c2nc(=O)n3c4c(c(-c5cc(F)c(F)cc5F)c(Cl)cc24)SCC3)[C@@H](C)C1 [Example 409, 7-((S)-4-acryloyl-2-methylpiperazin-1-yl)-9-chloro-10-(2,4,5-trifluorophenyl)-2,3-dihydro-5H-[1,4]thiazino[2,3,4-ij]quinazolin-5-one]"
2,83.9,"C=CC(=O)N1CCN(c2nc(=O)n3c4c(c(-c5ccc(F)cc5)c(Cl)cc24)SC[C@@H]3CN2CCN(CC)CC2)[C@@H](C)C1 [Example 410, (S)-7-((S)-4-acryloyl-2-methylpiperazin-1-yl)-9-chloro-3((4-ethylpiperazin-1-yl)methyl)-10-(4-fluorophenyl)-2H-[1,4]thiazino[2,3,4-ij]quinazolin-5(3H)-one]"
3,93.3,"C=CC(=O)N1CCN(c2nc(=O)n3c4c(c(-c5ccc(F)cc5F)c(Cl)cc24)SC[C@@H]3CN2CCN(C)CC2)[C@@H](C)C1 [Example 411, (3S)-7-((S)-4-acryloyl-2-methylpiperazin-1-yl)-9-chloro-10-(2,4-difluorophenyl)-3-((4-methylpiperazin-1-yl)methyl)-2H-[1,4]thiazino[2,3,4-ij]quinazolin-5(3H)-one]"
4,73.6,"C=CC(=O)N1CCN(c2nc(=O)n3c4c(c(-c5cc(Cl)c(F)cc5F)c(Cl)cc24)SC[C@@H]3CN2CCN(CC)CC2)[C@@H](C)C1 [Example 412, (3S)-7-((S)-4-acryloyl-2-methylpiperazin-1-yl)-9-chloro-10-(5-chloro-2,4-difluorophenyl)-3-((4-ethylpiperazin-1-yl)methyl)-2H-[1,4]thiazino[2,3,4-ij]quinazolin-5(3H)-one]"
5,86.6,"C=CC(=O)N1CCN(c2nc(=O)n3c4c(c(-c5ccc(F)cc5F)c(Cl)cc24)SC[C@@H]3CC2CCN(CC)CC2)[C@@H](C)C1 [Example 413, (3S)-7-((S)-4-acryloyl-2-methylpiperazin-1-yl)-9-chloro-10-(2,4-difluorophenyl)-3-((1-ethylpiperidin-4-yl)methyl)-2H-[1,4]thiazino[2,3,4-ij]quinazolin-5(3H)-one]"
6,92,"C=CC(=O)N1CCN(c2nc(=O)n3c4c(c(-c5ccc(F)cc5F)c(Cl)cc24)SC[C@@H]3CC2CCN(CC(F)F)CC2)[C@@H](C)C1 [Example 414, (3S)-7-((S)-4-acryloyl-2-methylpiperazin-1-yl)-9-chloro-3-((1-(2,2-difluoroethyl)piperidin-4-yl)methyl)-10-(2,4-difluorophenyl)-2H-[1,4]thiazino[2,3,4-ij]quinazolin-5(3H)-one]"
7,85.4,"C=CC(=O)N1CCN(c2nc(=O)n3c4c(c(-c5ccc(F)cc5F)c(Cl)cc24)SC[C@@H]3CC2CCN(C3COC3)CC2)[C@@H](C)C1 [Example 415, (3S)-7-((S)-4-acryloyl-2-methylpiperazin-1-yl)-9-chloro-10-(2,4-difluorophenyl)-3-((1-(oxetan-3-yl)piperidin-4-yl)methyl)-2H-[1,4]thiazino[2,3,4-ij]quinazolin-5(3H)-one]"
8,91.2,"C=CC(=O)N1CCN(c2nc(=O)n3c4c(c(-c5cc(F)c(F)cc5F)c(Cl)cc24)SC[C@@H]3CN2CCN(CC)CC2)[C@@H](C)C1 [Example 416, (3S)-7-((S)-4-acryloyl-2-methylpiperazin-1-yl)-9-chloro-3-((4-ethylpiperazin-1-yl)methyl)-10-(2,4,5-trifluorophenyl)-2H-[1,4]thiazino[2,3,4-ij]quinazolin-5(3H)-one]"
9,54.3,"C=CC(=O)N1CCN(c2nc(=O)n3c4c(c(-c5ccc(F)c6[nH]ncc56)c(Cl)cc24)SCC3)[C@@H](C)C1 [Example 419, 7-((S)-4-acryloyl-2-methylpiperazin-1-yl)-9-chloro-10-(7-fluoro-1H-indazol-4-yl)-2,3-dihydro-5H-[1,4]thiazino[2,3,4-ij]quinazolin-5-one]"
10,85.1,"C=CC(=O)N1CCN(c2nc(=O)n3c4c(c(-c5cc(F)c(F)cc5F)c(Cl)cc24)SC[C@@H]3CC2CCN(C3COC3)CC2)[C@@H](C)C1 [Example 421, (3S)-7-((S)-4-acryloyl-2-methylpiperazin-1-yl)-9-chloro-3-((1-(oxetan-3-yl)piperidin-4-yl)methyl)-10-(2,4,5-trifluorophenyl)-2H-[1,4]thiazino[2,3,4-ij]quinazolin-5(3H)-one]"
11,84.2,"C=CC(=O)N1CCN(c2nc(=O)n3c4c(c(-c5ccc(F)cc5F)c(Cl)cc24)SC[C@@H]3CN2CCN(C3CC3)CC2)[C@@H](C)C1 [Example 422, (3S)-7-((S)-4-acryloyl-2-methylpiperazin-1-yl)-9-chloro-3((4-cyclopropylpiperazin-1-yl)methyl)-10-(2,4-difluorophenyl)-2H-[1,4]thiazino[2,3,4-ij]quinazolin-5(3H)-one]"

# Same assay, conditions: 10 μM, 1 h; Table 4
row,Structure (SMILES),"% CAF @ 10 μM, 1 h [%]"
1,"C=CC(=O)N1CCN(c2nc(=O)n3c4c(c(-c5ccc(F)cc5)c(Cl)cc24)SC[C@H]3CC2CCN(CC(F)F)CC2)[C@@H](C)C1 [Example 349, (R)-7-((S)-4-acryloyl-2-methylpiperazin-1-yl)-9-chloro-3-((1-(2,2-difluoroethyl)piperidin-4-yl)methyl)-10-(4-fluorophenyl)-2H-[1,4]thiazino[2,3,4-ij]quinazolin-5(3H)-one]",94
2,"C=CC(=O)N1CCN(c2nc(=O)n3c4c(c(-c5ccc(F)cc5F)c(C(F)(F)F)cc24)SC[C@@H]3CN2CCN(CC)CC2)[C@@H](C)C1 [Example 350, (3S)-7-((S)-4-acryloyl-2-methylpiperazin-1-yl)-10-(2,4-difluorophenyl)-3-((4-ethylpiperazin-1-yl)methyl)-9-(trifluoromethyl)-2H-[1,4]thiazino[2,3,4-ij]quinazolin-5(3H)-one]",95
3,"C=CC(=O)N1CCN(c2nc(=O)n3c4c(c(-c5c(F)cc(F)cc5F)c(Cl)cc24)SC[C@@H]3CN2CCN(CC)CC2)[C@@H](C)C1 [Example 351, (S)-7-((S)-4-acryloyl-2-methylpiperazin-1-yl)-9-chloro-3-((4-ethylpiperazin-1-yl)methyl)-10-(2,4,6-trifluorophenyl)-2H-[1,4]thiazino[2,3,4-ij]quinazolin-5(3H)-one]",74
4,"C=CC(=O)N1CCN(c2nc(=O)n3c4c(c(-c5ccc(F)cc5F)c(C(F)(F)F)cc24)SC[C@@H]3CN2CCN(C3COC3)CC2)[C@@H](C)C1 [Example 352, (3S)-7-((S)-4-acryloyl-2-methylpiperazin-1-yl)-10-(2,4-difluorophenyl)-3-((4-(oxetan-3-yl)piperazin-1-yl)methyl)-9-(trifluoromethyl)-2H-[1,4]thiazino[2,3,4-ij]quinazolin-5(3H)-one]",96
5,"C=CC(=O)N1CCN(c2nc(=O)n3c4c(c(-c5ccc(F)cc5F)c(C(F)(F)F)cc24)SC[C@@H]3CC2CCN(CC)CC2)[C@@H](C)C1 [Example 353, (3S)-7-((S)-4-acryloyl-2-methylpiperazin-1-yl)-10-(2,4-difluorophenyl)-3-((1-ethylpiperidin-4-yl)methyl)-9-(trifluoromethyl)-2H-[1,4]thiazino[2,3,4-ij]quinazolin-5(3H)-one]",97
6,"C=CC(=O)N1CCN(c2nc(=O)n3c4c(c(-c5ccc(F)cc5F)c(Cl)cc24)SC[C@@H]3CN2CCN(CC)CC2)[C@@H](C)C1 [Example 354, (3S)-7-((S)-4-acryloyl-2-methylpiperazin-1-yl)-9-chloro-10-(2,4-difluorophenyl)-3-((4-ethylpiperazin-1-yl)methyl)-2H-[1,4]thiazino[2,3,4-ij]quinazolin-5(3H)-one]",96
7,"C=CC(=O)N1CCN(c2nc(=O)n3c4c(c(-c5ccc(F)cc5F)c(Cl)cc24)SC[C@@H]3CN2CCN(C3COC3)CC2)[C@@H](C)C1 [Example 355, (3S)-7-((S)-4-acryloyl-2-methylpiperazin-1-yl)-9-chloro-10-(2,4-difluorophenyl)-3-((4-(oxetan-3-yl)piperazin-1-yl)methyl)-2H-[1,4]thiazino[2,3,4-ij]quinazolin-5(3H)-one]",96
8,"C=CC(=O)N1CCN(c2nc(=O)n3c4c(c(-c5ccc(F)cc5F)c(Cl)cc24)SC[C@@H]3CN2CCN(CC(F)F)CC2)[C@@H](C)C1 [Example 356, (3S)-7-((S)-4-acryloyl-2-methylpiperazin-1-yl)-9-chloro-3-((4-(2,2-difluoroethyl)piperazin-1-yl)methyl)-10-(2,4-difluorophenyl)-2H-[1,4]thiazino[2,3,4-ij]quinazolin-5(3H)-one]",95
